In ChEMBL document CHEMBL3507680, “University of Dundee, Gates Library screen for HepG2 cell viability”:

experiment: Human HepG2 cell viability assay in 384 well format; assay type: toxicity, cell-based; parameters: dose 125 nL, time 70.5 hour; cytotoxicity at 70.5 h: concentration not given beside the values; conditions: HepG2 cells, read-out: Inhibition

SMILES	cytotoxicity at 70.5 h
CSc1sc2c(O)cc(=O)[nH]c2c1C(N)=O	11.3%
Cc1nccn1Cc1nnc(C2CCN(c3ccncc3F)CC2)n1C	17.7%
CCOc1ccc(Cl)c(C(=O)N2CCCSCC2)n1	-10.6%
c1cn(Cc2nnc(C3CCN(c4nccs4)CC3)n2C2CC2)cn1	-4.16%
O=C([C@@H]1C[C@@H]2CCN(Cc3ccco3)C[C@H]2O1)N1CCCO1	-0.42%
CCCn1c(C)c(CC(=O)N(C)CC(=O)OC)c2c1CC(C)(C)CC2=O	-3.68%
CN(CCO)Cc1nnc(C2CCN(C(=O)CN3CCCC3)CC2)n1C	-0.947%
CC(C)(C)c1nnc(CN2CCCC(c3cc(C(N)=O)[nH]n3)C2)o1 (configuration not stated)	10.9%
CSc1ccc(CNC(c2ccccc2)c2nccn2C)cc1 (configuration not stated)	-1.21%
Cc1ncoc1C(=O)N1C[C@H]2CCC[C@@]2(COCc2cccnc2)C1	3.21%
N#Cc1cccc(S(=O)(=O)NC(=O)c2csc(-c3ccco3)n2)c1	16.6%
COc1cc(NCC(c2ccccn2)N(C)C)ncn1 (configuration not stated)	-5.7%
c1cncc(N2CCCn3nnc(COCC4CC4)c3C2)c1	-7.98%
N#CC1(NC(=O)c2cc(Cl)c3c(c2)OCCCO3)CCC1	-4.84%
Cc1nc(C2CCCCN2C(=O)c2ccccc2)ncc1C(=O)N(C)C (configuration not stated)	-12%
O=C1C[C@H]2[C@@H](CCN2C(=O)Cc2cccs2)N1CC1CC1	-13.5%
CN(CCC(F)(F)F)c1nc2ccccc2c(=O)[nH]1	0.426%
COc1ncccc1CN1C[C@@H]2COC[C@]2(CNS(C)(=O)=O)C1	-13.2%
Cc1ccc(N(CCC#N)C(=O)CN2CCCC2c2ccsc2)cc1C (configuration not stated)	0.542%
CN(Cc1cccc(O)c1)CC1CCCN(CCc2ccc(Cl)cc2)C1 (configuration not stated)	10.2%
CCNC(=O)c1ccc(CNCc2c(C)nn(C)c2N(C)C)cc1	24.8%
CN(Cc1nncn1C)C(=O)c1cc(COc2ccccc2)[nH]n1	-5.51%
Cc1nn(C)cc1C(C)Nc1ncc(C(N)=O)cc1Cl (configuration not stated)	-5.7%

SMILES	cytotoxicity at 70.5 h
CN1C(=O)CC(C(=O)O)C12CCN(c1ccc3ccccc3n1)CC2 (configuration not stated)	-4.07%
CC(C)c1cc(N2CCC(CCC(=O)NC3CC3)CC2)n2nccc2n1	-10.7%
O=C(NCc1nnc2n1CCC2)N(Cc1ccco1)C1CC1	-10.5%
CNc1nc2ncc(Cl)cc2cc1C#N	-2.12%
N#Cc1ccccc1CN1CCC(c2nccn2CC(N)=O)CC1	-4.95%
CN(Cc1ccccn1)C1CC2(CCN(Cc3ccccn3)CC2)C1	-10.9%
CN(C)S(=O)(=O)N1CCN(CC2CCOc3ccccc3C2)CC1 (configuration not stated)	-4.7%
CC(C)c1nc(C(=O)N2CCOCC2CC(=O)c2ccco2)c[nH]1 (configuration not stated)	-14.6%
COCC(=O)N1CC[C@@H]2O[C@@H](C)C[C@H]2C1	-12.2%
COc1ccccc1N1CCC(CNCc2cccc(O)c2)C1 (configuration not stated)	8.44%
CS(=O)(=O)NCC1CCCCN1Cc1ccccc1C#N (configuration not stated)	-10.5%
Cc1ccc(C(=O)N2CCn3cc(CN4CCCCC4)nc3C2)o1	35.2%
CNC(=O)[C@H]1C[C@@H]2CN(C(=O)c3ccncc3F)C[C@@H]2N1C	-16.9%
O=C(C1SCCc2sccc21)N1CCC(O)CC1 (configuration not stated)	1.7%
CCn1c(Cn2cncn2)nnc1C1CCN(C2CCNCC2)CC1	-5.11%
CC(C)CSc1ccc(-n2cccn2)nn1	27.6%
CCn1cc(C(=O)NCCc2nc(-c3ccc(C)cc3)n[nH]2)c(C)n1	-4.26%
CCNC(=O)C1CCCN1S(=O)(=O)c1sc(=O)[nH]c1C (configuration not stated)	-4.2%
COCC(=O)N1CCC2(CCC(C(=O)N3CCCC3)O2)CC1 (configuration not stated)	10.4%
COCC1(NC(=O)Nc2nc(C)ns2)CCCC1	-13.9%
CC(C)c1nc2n(n1)CC(NCc1nc(-c3cccnc3)no1)CC2 (configuration not stated)	21.9%
CCN(CC)CCCC(C)NC(=O)c1ccccc1-n1cccn1 (configuration not stated)	-9.46%
Cc1cc(CNC2CCc3nc(C(C)C)nn3C2)on1 (configuration not stated)	-5.91%

SMILES	cytotoxicity at 70.5 h
CC(C)CN1C[C@H]2C[C@H](C(=O)NC3CCC3)[C@@H](C1)O2	-1.14%
COc1ccc(N2CCC(N(C)C(C)C(=O)N(C)C)CC2)cc1 (configuration not stated)	15.1%
Cc1n[nH]c(C2CN(CCCOc3cccc(Cl)c3)CCO2)n1 (configuration not stated)	-14.2%
Cc1cnn(C2CCCN(C(=O)c3ccc(O)nc3)C2)c1 (configuration not stated)	-12.4%
COc1ccc2c(OCC(=O)NCC(F)(F)F)ccnc2c1	-15.8%
C[C@@H]1CN(C(=O)C2CCS(=O)(=O)CC2)C[C@]1(C)O	-8.15%
CCn1cc(CNc2ccc(F)c(N3CCCS3(=O)=O)c2)cn1	0.531%
O=C1CC(NS(=O)(=O)c2ccc3ccccc3c2)CN1 (configuration not stated)	-5.96%
CC(=O)N1CCC(c2nnc3ccc(C(=O)NC(C)C)cn23)C1 (configuration not stated)	-1.85%
Cc1cc(N[C@H](CO)c2ccccc2)n2nc(C)cc2n1	-1.18%
CC(C)(CO)Nc1cc(-c2ccccc2)ncn1	-2.92%
CC[C@@H](C)[C@H](NC(=O)CCn1cc(C(C)=O)c2ccccc21)C(=O)O	-6.89%
COc1cc2nc3n(c(=O)c2cc1OC)CCN(C(=O)C1CCC1)CC3	-4.59%
CCCc1noc(CCC(=O)N2CCCC2Cn2cc(C)cn2)n1 (configuration not stated)	-10.8%
CN1C(=O)CO[C@H]2CN(C(=O)c3ccc4c(c3)CCCC4)C[C@@H]21	8.95%
CCOc1ccccc1-n1c(C2CC2)n[nH]c1=O	-16.7%
COc1ccc(CCC(=O)Nc2ccc3ncn(C)c(=O)c3c2)cc1	-2.91%
Cn1cncc1-c1nnc([C@H]2CCN(C3CCOCC3)C2)o1	-3.04%
CCn1c(CN(C)C)nnc1C1CCN(Cc2ccccn2)CC1	20.6%
O=C(NCCc1nccs1)N1CCC(n2cccc2)CC1	-9.14%
CCc1ccc(C(C)NC(=O)N2CCC(n3cncn3)CC2)cc1 (configuration not stated)	-8.05%
CS(=O)(=O)N1CCN(Cc2c(O)ccc3oc4c(c23)CCCC4)CC1	-10.3%
COc1ccc(CN2CC3(CCNCC3)CCC2=O)c(F)c1F	15.3%

SMILES	cytotoxicity at 70.5 h
O=C(NCC(Cc1cccc(F)c1)N1CCCC1=O)c1ccccc1 (configuration not stated)	4.11%
CC(C)n1nc2c(cc1=O)CN(CCOc1ccc(C#N)cc1)CC2	-12.5%
Cc1ccc(C(=O)N(C)Cc2cc(C)on2)cn1	-2.86%
COc1cccc(CC(=O)N2CC[C@@H](OC)[C@@H]2Cc2cccnc2)c1	-4.93%
COCC(NC(=O)c1cc(NC(C)=O)ccc1Cl)c1ccccn1 (configuration not stated)	-5.35%
CSCC(C)(O)CNc1cccc(F)c1C#N (configuration not stated)	-15.5%
CN(C)c1nc2c(c(N3CCC(O)CC3)n1)CN(CC1CCOC1)CC2 (configuration not stated)	-3.69%
CNc1ncccc1CN1CCCCC1c1cc(C)n2ccnc2n1 (configuration not stated)	-5.95%
Cc1ccc(-c2nc(CN3CCOCC3)no2)cc1N1CCNC1=O	-6.32%
COCCCN(C)[C@@H]1c2ccccc2C2(CCNCC2)[C@H]1O	-9.86%
Cc1cccc(C(C)(C)NC(=O)CS(=O)(=O)CC(C)C)c1	-4.98%
O=C(NCCn1ccnc1)N1CCCN(Cc2cccs2)CC1	-9.01%
CCN1CCN(c2ccc(F)cc2C(C)NCc2noc(C)n2)CC1 (configuration not stated)	-7.42%
COCCN1CCO[C@@H]2CN(C(=O)NCc3ccccc3)CC[C@@H]2C1	2.53%
O=C(CN1CCN(c2ncnc3cccc(F)c23)CC1)N1CCCC1	-9.51%
CNC(=O)NCC(CO)Cc1cccc(OC(F)(F)F)c1 (configuration not stated)	-8.42%
COCCNC(=O)N1CCCC(COc2ccccc2)C1 (configuration not stated)	1.11%
CN(Cc1ccccn1)C(=O)CNC(=O)N1CCc2ccccc2C1	-10.7%
COCCN1CCC2(CC1)CC(N1CCOCC1)c1ccc(C)cc12 (configuration not stated)	-8.53%
Cn1cc(-c2cnc(N3CCCC3)nc2)cc1C(=O)N1CCOCC1	-27.4%
Cc1cnc(C(=O)N2C[C@@H](NS(C)(=O)=O)[C@@H]3OCCC[C@@H]32)cn1	-13.4%
Nc1cc(C(=O)NC2CCCN(CCCc3ccccc3)C2)ccn1 (configuration not stated)	12.3%
COc1c(CNC2CCOc3c(Cl)cccc32)c(C(C)C)nn1C (configuration not stated)	11.4%

SMILES	cytotoxicity at 70.5 h
O=C(NCC1(O)COCCN(Cc2cccc(O)c2)C1)c1cscn1 (configuration not stated)	-7.81%
COc1c(C)cnc(CN2CCC(N(C)S(C)(=O)=O)CC2)c1C	-16%
COCCN1CCCC12CCN(c1ncccn1)CC2	-14.3%
Cc1cccnc1C(NC(=O)CNC(=O)c1ccoc1C)C(C)C (configuration not stated)	3.13%
COCc1csc(NC(=O)NCc2ncccc2C)n1	0.235%
COCCNC(=O)Cn1ccc2cccc(OC)c21	8.67%
COCc1noc(Cn2c(=O)[nH]c3ccccc32)n1	-10.2%
Cc1nc(CNC(=O)Nc2ccc3c(c2)CCCC(=O)N3)sc1C	-0.115%
Cc1cc(C)n(C2CCCN(C(=O)c3cn4cccnc4n3)C2)n1 (configuration not stated)	-6.47%
CC1(C)[C@H](Cc2cc(CN3CCOCC3)on2)C[C@@H]1NC(=O)C1CCC1	11.5%
CCc1nc(-c2ccc(NC(=O)N3CCC4(CC3)OCCO4)cc2)no1	3.68%
CC(C)C1CN(S(=O)(=O)N2CCCC2)CCCN1Cc1ccc(F)cc1 (configuration not stated)	-3.07%
CC(C)N1Cc2cccc(NCC(=O)N(C)C)c2C1	-2.57%
CCn1nc(C)cc1C(=O)N1C[C@@H]2C[C@@H](C)O[C@@H]2C1	-7.68%
COc1ccc(N2CCN(CC(O)c3ccc(C)cc3C)CC2)cc1 (configuration not stated)	-3.49%
CCOc1nc2cnccc2n(CC(=O)NCc2ccc(C)cc2)c1=O	-9.89%
Cc1ncsc1CN1CC[C@H]2C[C@H](c3ccncn3)O[C@@H]2C1	-12.4%
CCCn1ncc2c(C(=O)Nc3n[nH]c(SC)n3)cc(C3CC3)nc21	5.71%
CC(c1ccon1)N(C)C(=O)C1CCN(CC(N)=O)CC1 (configuration not stated)	18%
CC(C)c1cc(C(=O)N2C[C@H]3CC[C@@H]2CN(Cc2ccccn2)C3)no1	-7.13%
